Test results published in patent US20060035925A1, “SUBSTITUTED 4H-CHROMENES AND ANALOGS AS ACTIVATORS OF CASPASES AND INDUCERS OF APOPTOSIS AND THE USE THEREOF” (Cytovia, Inc., priority 1999, published 2006).
Where two headings read alike, the source gives them in different places.

Assays:
[1] = tested on: Human breast cancer cell line T-47D; experiment: Caspase cascade activation assay (N-(Ac-DEVD)-N'-ethoxycarbonyl-R110 fluorogenic substrate) in T-47D cells; assay type: cell-based; conditions: for Caspase activity (Ratio) T-47D: 24 h incubation with compound, ratio of net RFU (T=3 h) of test compound to control
Description: (§1) Human breast cancer cell lines T-47D and ZR-75-1 were grown according to media component mixtures designated by American Type Culture Collection +10% FCS (Invitrogen Corporation), in a 5% CO2-95% humidity incubator at 37° C. T-47D and ZR-75-1 cells were maintained at a cell density between 30 and 80% confluency at a cell density of 0.1 to 0.6×10^6 cells/ml. Cells were harvested at 600×g and resuspended at 0.65×10^6 cells/mL into appropriate media +10% FCS. An aliquot of 45 μl of cells was added to a well of a 96-well microtiter plate containing 5 μl of a 10% DMSO in RPMI-1640 media solution containing 0.16 to 10 μM of 2-amino-3-cyano-4-(3-bromo-4,5-dimethoxyphenyl)-4H-indolo[7,6-b]pyran (Example 42) or other test compound (0.016 to 1 μM final). An aliquot of 45 μl of cells was added to a well of a 96-well microtiter plate containing 5 μl of a 10% DMSO in RPMI-1640 media solution without test compound as the control sample. The samples were mixed by agitation and then incubated at 37° C. for 24 h in a 5% CO2-95% humidity incubator. After incubation, the samples were removed from the incubator and 50 μl of a solution containing 20 μM of N-(Ac-DEVD)-N′-ethoxycarbonyl-R110 (SEQ ID NO:1) fluorogenic substrate (Cytovia, Inc.; WO99/18856), 20% sucrose (Sigma), 20 mM DTT (Sigma), 200 mM NaCl (Sigma), 40 mM Na PIPES buffer pH 7.2 (Sigma), and 500 μg/ml lysolecithin (Calbiochem) was added. The samples were mixed by agitation and incubated at room temperature. Using a fluorescent plate reader (Model 1420 Wallac Instruments), an initial reading (T=0) was made approximately 1-2 min after addition of the substrate solution, employing excitation at 485 nm and emission at 530 nm, to determine the background fluorescence of the control sample. After the 3 h incubation, the samples were read for fluorescence as above (T=3 h).
(§2) The Relative Fluorescence Unit values (RFU) were used to calculate the sample readings as follows: RFU(T=3h)−Control RFU(T=0)=Net RFU(T=3h)
(§3) The activity of caspase cascade activation was determined by the ratio of the net RFU value for 2-amino-3-cyano-4-(3-bromo-4,5-dimethoxyphenyl)-4H-indolo[7,6-b]pyran or other test compound to that of control samples. The EC50 (nM) was determined by a sigmoidal dose-response calculation (Prism 2.0, GraphPad Software Inc.).

[2] = tested on: Human breast cancer cell line ZR-75-1; experiment: Caspase cascade activation assay (N-(Ac-DEVD)-N'-ethoxycarbonyl-R110 fluorogenic substrate) in ZR-75-1 cells; assay type: cell-based; conditions: for Caspase activity (Ratio) ZR-75-1: 24 h incubation with compound, ratio of net RFU (T=3 h) of test compound to control
Description: as §1, §2, §3

[3] = Homo sapiens, T47D, 24 h, 24 h incubation, sigmoidal dose-response, read-out: Caspase potency EC50 (nM) T-47D
[4] = Homo sapiens, ZR-75-1, 24 h, ZR-75-1 cells, 24 h incubation, sigmoidal dose-response, read-out: Caspase potency EC50 (nM) ZR-75-1
[5] = 24 h incubation, sigmoidal dose-response, read-out: Caspase potency EC50 (nM) T-47D
[6] = ZR-75-1 cells, 24 h incubation, sigmoidal dose-response, read-out: Caspase potency EC50 (nM) ZR-75-1
[7] = ZR-75-1 cells, additional compounds, Table II

| Compound | Caspase activity (Ratio) T-47D [1] | EC50 [1, 3] [nM] | EC50 [2, 4] [nM] | Caspase activity (Ratio) ZR-75-1 ([2]; ZR-75-1 cells) | further results |
| --- | --- | --- | --- | --- | --- |
| Cc1cncc(C2C3=CC=C4N=CC=C4C3OC(N)=C2C#N)n1 (stereo not drawn) [Example 58, 2-Amino-3-cyano-4-(6-methyl-pyrazin-2-yl)-4H-indolo[4,5-b]pyran] | 4.1 | 2900 | 1630 | 7.0 | – |
| N#CC1=C(N)OC2C3=CC=NC3=CC=C2C1c1cc(F)cc(F)c1 (stereo not drawn) [Example 2K, 2-Amino-3-cyano-4-(3,5-difluorophenyl)-4H-indolo[4,5-b]pyran] | 5.6 | 37 | 16 | 6.9 | – |
| CCNc1ccc2c(c1)OC(N)=C(C#N)C2c1cccc(C#N)c1 (stereo not drawn) [Example 16, 2-Amino-3-cyano-7-ethylamino-4-(3-cyanophenyl)-4H-chromene] | 7 | 11 | 6 | 6.7 | – |
| CNC1=C(C#N)C(c2cc(Br)c(OC)c(OC)c2)c2ccc3ccn(C)c3c2O1 (stereo not drawn) [Example 76, 3-Cyano-4-(3-bromo-4,5-dimethoxyphenyl)-2-methylamino-9-methyl-4H-pyrrolo[3,2-h]chromene] | 2.0 | > 10000 | 4100 | 2.3 | – |
| N#CC1=C(N)Oc2cc(O)ccc2C1c1cccc(C#N)c1 (stereo not drawn) [Example 2B, 2-Amino-3-cyano-7-hydroxy-4-(3-cyanophenyl)-4H-chromene] | 1.2 | > 10000 | > 10000 | 1.9 | – |
| COc1cc(C2C(C#N)=C(N)Oc3c2ccc(N)c3C)cc(Br)c1OC (stereo not drawn) [Example 2H, 2-Amino-3-cyano-7-amino-8-methyl-4-(3-bromo-4,5-dimethoxyphenyl)-4H-chromene] | 5.5 | 29 | 16 | 3.9 | – |
| COc1cccc(C2C3=CC=C4N=CC=C4C3OC(N)=C2C#N)c1 (stereo not drawn) [Example 46, 2-Amino-3-cyano-4-(3-methoxyphenyl)-4H-indolo[4,5-b]pyran] | 6.4 | 62 | 26 | 7.1 | EC50 [1, 5]: 61.8 nM; EC50 [2, 6]: 26.3 nM |
| N#CC1=C(N)OC2C3=CC=NC3=CC=C2C1c1cnc2ccccc2n1 (stereo not drawn) [Example 59, 2-Amino-3-cyano-4-(quinoxalin-2-yl)-4H-indolo[4,5-b]pyran] | 1.1 | > 10000 | > 10000 | 1.2 | – |
| CCC(C)C(=O)Nc1ccc2c(c1)OC(N)=C(C#N)C2c1cc(Br)c(OC)c(OC)c1 (stereo not drawn) [2-Amino-3-cyano-7-(2-methylbutanoylamino)-4-(3-bromo-4,5-dimethoxyphenyl)-4H-chromene] | – | – | – | – | Caspase activity (Ratio) T-47D, Table II ([1]; additional compounds, Table II): Inactive; Caspase potency EC50 (nM) T-47D, Table II ([1]; additional compounds, Table II): Inactive; Caspase activity (Ratio) ZR-75-1, Table II [2, 7]: Inactive; Caspase potency EC50 (nM) ZR-75-1, Table II [2, 7]: Inactive |
| N#CC1=C(N)Oc2ccccc2C1c1ccccc1 (stereo not drawn) [Example 29, 2-Amino-3-cyano-4-phenyl-4-H-chromene] | <2 | – | – | <2 | EC50 [1, 5]: > 10000 nM; EC50 [2, 6]: > 10000 nM |
| N#CC1=C(N)Oc2cc(N)ccc2C1c1ccccc1 (stereo not drawn) [2,7-Diamino-3-cyano-4-phenyl-4H-chromene] | – | – | – | – | EC50 ([1]; Homo sapiens, T47D, additional compounds, Table II, read-out: Caspase potency EC50 (nM) T-47D, Table II): 5630 nM; Caspase activity (Ratio) T-47D, Table II ([1]; additional compounds, Table II): 6.3; EC50 ([2]; Homo sapiens, ZR-75-1, ZR-75-1 cells, additional compounds, Table II, read-out: Caspase potency EC50 (nM) ZR-75-1, Table II): 2880 nM; Caspase activity (Ratio) ZR-75-1, Table II [2, 7]: 8.6 |
| Cc1cncc(C2C3=CC=C4N=CC=C4C3OC(N)=C2C#N)c1 (stereo not drawn) [Example 35, 2-Amino-3-cyano-4-(5-methyl-3-pyridyl)-4H-indolo[4,5-b]pyran] | 6.9 | 3 | 8 | 5.5 | – |
| COc1cc(C2C(C#N)=C(N)Oc3c2ccc2[nH]c(C)nc32)cc(Br)c1OC (stereo not drawn) [Example 65, 2-Amino-3-cyano-4-(3-bromo-4,5-dimethoxy-phenyl)-8-methyl-4H-imidazo[4,5-h]-chromene] | 1.5 | – | – | 6.0 | EC50 [1, 5]: > 1000 nM; EC50 [2, 6]: 570 nM |
| N#CC1=C(N)OC2C3=CC=NC3=CC=C2C1c1cc(Cl)cc(Cl)c1 (stereo not drawn) [Example 2F, 2-Amino-3-cyano-4-(3,5-dichlorophenyl)-4H-indolo[4,5-b]pyran] | 4.7 | 44 | 26 | 4.4 | – |
| Cc1cncc(C2C3=CC=C4C=CN=C4C3OC(N)=C2C#N)c1 (stereo not drawn) [Example 55, 2-Amino-3-cyano-4-(5-methyl-pyridin-3-yl)-4H-indolo[7,6-b]pyran] | 7.4 | 15.3 | 4 | 7.2 | – |
| COC(=O)C1=C(N)Oc2c(ccc3[nH]ccc23)C1c1cc(Br)c(OC)c(OC)c1 (stereo not drawn) [Example 73] | 7.5 | – | – | 9.0 | EC50 [1, 5]: 29.4 nM; EC50 [2, 6]: 26.7 nM |
| N#CC1=C(N)OC2C3=CC=NC3=CC=C2C1c1cccnc1 (stereo not drawn) [Example 18, 2-Amino-3-cyano-4-(3-pyridyl)-4H-indolo[4,5-b]pyran] | 9.0 | 56 | 38 | 8.8 | – |
| COc1cc(C2(C)C(C#N)=C(N)Oc3cc(N(C)C)ccc32)cc(Br)c1OC (stereo not drawn) [Example 68A, 2-Amino-3-cyano-7-dimethylamino-4-(3-bromo-4,5-dimethoxyphenyl)-4-methylchromene] | 6.8 | 1980 | 1470 | 6.5 | – |
| N#CC1=C(N)OC2C3=CC=NC3=CC=C2C1c1cccc(Cl)c1 (stereo not drawn) [Example 2G, 2-Amino-3-cyano-4-(3-chlorophenyl)-4H-indolo[4,5-b]pyran] | 5.6 | 56 | 25 | 4.5 | – |
| COc1ccc2c(c1)OC(N)=C(C#N)C2c1cccc(Cl)c1 (stereo not drawn) [Example 10, 2-Amino-3-cyano-7-methoxy-4-(3-chlorophenyl)-4H-chromene] | 6.1 | 48 | 36 | 9.0 | – |
| COc1cc(C2C(C#N)=C(N)Oc3cc(Br)ccc32)cc(Br)c1OC (stereo not drawn) [Example 62, 2-Amino-7-bromo-4-(3-bromo-4,5-dimethoxy-phenyl)-3-cyano-4H-chromene] | 6.6 | 144 | 75.3 | 6.0 | – |
| 2-Amino-3-cyano-7-methoxy-4-(2,4-dimethoxypyrimidinyl)-4H-chromene [Example 27] | <2 | – | – | <2 | EC50 [1, 5]: > 10000 nM; EC50 [2, 6]: > 10000 nM |
| N#CC1=C(N)Oc2cc(N)ccc2C1c1cccc(F)c1 (stereo not drawn) [Example 2M, 2-Amino-3-cyano-7-amino-4-(3-fluorophenyl)-4H-chromene] | 5.8 | 1390 | 786 | 6.9 | – |
| COc1ccc2c(c1)OC(N)=C(C#N)C2c1cncc(C)c1 (stereo not drawn) [Example 30, 2-Amino-3-cyano-7-methoxy-4-(5-methyl-3-pyridyl)-4H-chromene] | 7.5 | 24 | 14 | 13.2 | – |
| COc1cc(C2C3=CC=C4N=CC=C4C3OC(N)=C2C#N)cc(Br)c1O (stereo not drawn) [Example 50, 2-Amino-4-(3-bromo-4-hydroxy-5-methoxyphenyl)-3-cyano-4H-indolo[4,5-b]pyran] | 10.1 | 16.5 | 14.8 | 10.6 | – |
